Assay results taken from ChEMBL document CHEMBL5291721, “A preclinical secondary pharmacology resource illuminates target-adverse drug reaction associations of marketed drugs” (Nat Commun, 2023).
Where “and” joins values, the source holds several entries; their conditions need not be identical. Equal entries are not always repeated.

What was measured:
B2 bradykinin receptor = target: T1, B2 bradykinin receptor (Homo sapiens, UniProt P30411)
T1 sequence (P30411 whole entry): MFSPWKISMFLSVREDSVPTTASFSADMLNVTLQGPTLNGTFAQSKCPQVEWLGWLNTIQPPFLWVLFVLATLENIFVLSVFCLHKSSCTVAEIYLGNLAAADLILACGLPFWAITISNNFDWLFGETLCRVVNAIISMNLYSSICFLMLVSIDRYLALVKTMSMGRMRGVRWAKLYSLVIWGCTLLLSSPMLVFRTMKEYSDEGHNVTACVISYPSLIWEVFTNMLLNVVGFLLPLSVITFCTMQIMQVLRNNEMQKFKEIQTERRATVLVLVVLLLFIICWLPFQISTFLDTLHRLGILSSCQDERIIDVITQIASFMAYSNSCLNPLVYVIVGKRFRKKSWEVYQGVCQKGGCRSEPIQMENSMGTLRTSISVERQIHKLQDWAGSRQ

Cannabinoid receptor 1 = Cannabinoid receptor 1 (Homo sapiens, UniProt P21554)
Sequence of Cannabinoid receptor 1 (P21554 whole entry): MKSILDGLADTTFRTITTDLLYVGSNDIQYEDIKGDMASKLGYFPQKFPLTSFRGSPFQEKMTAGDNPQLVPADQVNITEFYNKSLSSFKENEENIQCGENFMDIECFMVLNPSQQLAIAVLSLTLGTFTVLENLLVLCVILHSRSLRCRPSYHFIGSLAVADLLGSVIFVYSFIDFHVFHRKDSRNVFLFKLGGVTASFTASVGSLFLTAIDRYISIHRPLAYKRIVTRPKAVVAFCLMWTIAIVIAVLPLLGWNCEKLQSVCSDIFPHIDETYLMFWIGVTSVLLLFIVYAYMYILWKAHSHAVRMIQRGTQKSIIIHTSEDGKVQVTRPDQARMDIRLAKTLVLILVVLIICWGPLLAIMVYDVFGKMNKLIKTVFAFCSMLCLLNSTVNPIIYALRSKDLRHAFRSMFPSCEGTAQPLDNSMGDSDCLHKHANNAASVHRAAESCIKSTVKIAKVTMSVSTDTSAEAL

Endothelin-1 receptor = target: T2, Endothelin-1 receptor (Homo sapiens, UniProt P25101)
T2 sequence (P25101 whole entry): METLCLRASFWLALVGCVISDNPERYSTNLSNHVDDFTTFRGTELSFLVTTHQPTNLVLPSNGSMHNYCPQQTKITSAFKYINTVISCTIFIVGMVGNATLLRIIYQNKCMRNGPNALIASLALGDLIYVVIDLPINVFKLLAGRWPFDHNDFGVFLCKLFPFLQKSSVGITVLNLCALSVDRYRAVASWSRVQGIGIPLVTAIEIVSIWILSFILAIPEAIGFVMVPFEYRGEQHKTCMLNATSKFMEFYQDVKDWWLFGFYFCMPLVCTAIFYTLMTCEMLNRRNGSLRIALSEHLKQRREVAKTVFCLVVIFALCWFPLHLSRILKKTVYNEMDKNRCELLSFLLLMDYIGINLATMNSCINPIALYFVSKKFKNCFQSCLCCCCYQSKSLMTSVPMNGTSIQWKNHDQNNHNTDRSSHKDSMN

Histamine H2 receptor = Histamine H2 receptor (Homo sapiens, UniProt P25021); type: functional, cell-based
Sequence of Histamine H2 receptor (P25021 whole entry): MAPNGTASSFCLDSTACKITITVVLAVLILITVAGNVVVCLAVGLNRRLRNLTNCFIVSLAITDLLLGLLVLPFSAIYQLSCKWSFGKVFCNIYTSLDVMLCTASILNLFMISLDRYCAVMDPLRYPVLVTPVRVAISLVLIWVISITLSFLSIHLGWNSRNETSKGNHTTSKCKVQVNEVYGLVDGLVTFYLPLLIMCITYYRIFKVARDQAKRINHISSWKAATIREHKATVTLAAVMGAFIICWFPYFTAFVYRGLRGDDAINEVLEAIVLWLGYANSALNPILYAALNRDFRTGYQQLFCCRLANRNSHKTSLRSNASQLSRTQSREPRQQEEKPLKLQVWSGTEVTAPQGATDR

Progesterone receptor = target: T3, Progesterone receptor (Homo sapiens, UniProt P06401); type: functional
T3 sequence (P06401 whole entry): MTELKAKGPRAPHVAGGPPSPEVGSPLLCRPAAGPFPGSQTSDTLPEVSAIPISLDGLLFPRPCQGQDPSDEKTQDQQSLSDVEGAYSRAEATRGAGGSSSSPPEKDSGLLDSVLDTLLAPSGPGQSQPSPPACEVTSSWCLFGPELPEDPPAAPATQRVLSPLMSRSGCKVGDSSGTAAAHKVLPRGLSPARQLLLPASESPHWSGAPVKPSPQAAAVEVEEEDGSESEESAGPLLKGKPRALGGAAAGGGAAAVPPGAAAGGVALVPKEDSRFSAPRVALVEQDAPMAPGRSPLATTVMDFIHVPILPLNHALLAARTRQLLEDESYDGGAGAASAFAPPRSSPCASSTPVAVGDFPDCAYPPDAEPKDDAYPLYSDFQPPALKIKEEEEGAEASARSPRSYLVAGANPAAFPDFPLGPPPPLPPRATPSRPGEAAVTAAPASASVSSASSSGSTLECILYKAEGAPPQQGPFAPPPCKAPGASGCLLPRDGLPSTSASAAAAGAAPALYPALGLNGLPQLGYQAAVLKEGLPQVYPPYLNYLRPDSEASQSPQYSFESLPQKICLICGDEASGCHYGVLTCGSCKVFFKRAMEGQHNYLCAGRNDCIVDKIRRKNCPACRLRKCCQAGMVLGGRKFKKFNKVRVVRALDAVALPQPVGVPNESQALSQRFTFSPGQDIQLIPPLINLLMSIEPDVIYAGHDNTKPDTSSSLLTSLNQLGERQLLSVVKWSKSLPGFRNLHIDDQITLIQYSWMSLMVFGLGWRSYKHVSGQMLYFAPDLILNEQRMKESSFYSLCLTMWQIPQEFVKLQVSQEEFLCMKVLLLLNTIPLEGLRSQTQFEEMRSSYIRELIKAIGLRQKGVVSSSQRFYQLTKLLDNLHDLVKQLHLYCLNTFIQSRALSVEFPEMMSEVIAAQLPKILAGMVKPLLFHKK

[1] = target: T4, Alpha-2A adrenergic receptor (Homo sapiens, UniProt P08913)
T4 sequence (P08913 whole entry): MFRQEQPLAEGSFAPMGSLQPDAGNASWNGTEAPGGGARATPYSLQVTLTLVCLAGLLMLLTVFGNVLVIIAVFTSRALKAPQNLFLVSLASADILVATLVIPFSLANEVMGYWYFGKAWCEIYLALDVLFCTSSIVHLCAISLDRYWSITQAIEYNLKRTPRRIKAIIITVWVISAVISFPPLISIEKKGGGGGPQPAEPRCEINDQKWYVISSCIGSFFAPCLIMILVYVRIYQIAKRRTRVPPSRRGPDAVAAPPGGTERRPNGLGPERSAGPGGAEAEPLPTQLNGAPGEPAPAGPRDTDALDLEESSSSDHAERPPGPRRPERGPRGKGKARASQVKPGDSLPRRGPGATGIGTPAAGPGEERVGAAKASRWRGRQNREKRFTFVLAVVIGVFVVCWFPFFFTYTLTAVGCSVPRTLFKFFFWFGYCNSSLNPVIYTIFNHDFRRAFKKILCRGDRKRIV

D(1A) dopamine receptor = D(1A) dopamine receptor (Homo sapiens, UniProt P21728)
Sequence of D(1A) dopamine receptor (P21728 whole entry): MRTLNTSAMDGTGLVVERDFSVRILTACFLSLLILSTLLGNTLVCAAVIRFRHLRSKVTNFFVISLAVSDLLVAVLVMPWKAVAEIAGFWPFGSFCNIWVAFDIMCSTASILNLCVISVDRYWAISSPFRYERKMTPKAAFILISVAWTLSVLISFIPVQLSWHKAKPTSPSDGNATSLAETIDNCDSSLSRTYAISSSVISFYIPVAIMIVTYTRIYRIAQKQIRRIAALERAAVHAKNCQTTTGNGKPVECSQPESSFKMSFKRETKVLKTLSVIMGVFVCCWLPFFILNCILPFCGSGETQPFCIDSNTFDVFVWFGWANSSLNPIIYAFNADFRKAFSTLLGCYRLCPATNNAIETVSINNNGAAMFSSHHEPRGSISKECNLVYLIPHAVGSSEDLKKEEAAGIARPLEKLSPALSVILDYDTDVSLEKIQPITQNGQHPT

[2] = target: T5, 5-hydroxytryptamine receptor 1A (Homo sapiens, UniProt P08908)
T5 sequence (P08908 whole entry): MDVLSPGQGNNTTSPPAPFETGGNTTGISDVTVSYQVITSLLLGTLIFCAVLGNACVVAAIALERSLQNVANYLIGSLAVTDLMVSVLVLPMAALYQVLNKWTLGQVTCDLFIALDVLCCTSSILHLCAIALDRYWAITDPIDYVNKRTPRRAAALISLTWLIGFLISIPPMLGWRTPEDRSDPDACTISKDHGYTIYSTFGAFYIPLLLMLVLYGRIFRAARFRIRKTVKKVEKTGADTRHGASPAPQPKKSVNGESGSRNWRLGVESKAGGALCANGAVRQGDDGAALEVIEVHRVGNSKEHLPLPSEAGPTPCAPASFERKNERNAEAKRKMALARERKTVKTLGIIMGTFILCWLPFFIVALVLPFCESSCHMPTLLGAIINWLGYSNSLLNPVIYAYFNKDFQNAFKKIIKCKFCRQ

[3] = target: 5-hydroxytryptamine receptor 2B (Homo sapiens, UniProt P41595); type: functional, cell-based
Sequence of 5-hydroxytryptamine receptor 2B (P41595 whole entry): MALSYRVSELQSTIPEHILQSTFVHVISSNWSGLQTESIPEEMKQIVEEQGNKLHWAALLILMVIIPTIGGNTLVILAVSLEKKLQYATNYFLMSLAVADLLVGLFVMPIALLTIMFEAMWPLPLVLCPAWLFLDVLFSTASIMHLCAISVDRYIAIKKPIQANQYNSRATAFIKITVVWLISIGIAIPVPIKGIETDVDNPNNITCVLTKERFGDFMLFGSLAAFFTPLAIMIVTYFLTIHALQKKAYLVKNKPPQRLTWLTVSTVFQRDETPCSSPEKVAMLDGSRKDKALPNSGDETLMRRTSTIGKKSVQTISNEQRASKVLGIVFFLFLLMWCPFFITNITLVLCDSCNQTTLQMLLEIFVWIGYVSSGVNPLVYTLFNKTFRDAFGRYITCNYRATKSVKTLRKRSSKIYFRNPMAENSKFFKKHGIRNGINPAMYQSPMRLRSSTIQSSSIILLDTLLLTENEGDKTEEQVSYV

[4] = target: Vascular endothelial growth factor receptor 2 (Homo sapiens, UniProt P35968); type: functional
Sequence of Vascular endothelial growth factor receptor 2 (P35968 whole entry): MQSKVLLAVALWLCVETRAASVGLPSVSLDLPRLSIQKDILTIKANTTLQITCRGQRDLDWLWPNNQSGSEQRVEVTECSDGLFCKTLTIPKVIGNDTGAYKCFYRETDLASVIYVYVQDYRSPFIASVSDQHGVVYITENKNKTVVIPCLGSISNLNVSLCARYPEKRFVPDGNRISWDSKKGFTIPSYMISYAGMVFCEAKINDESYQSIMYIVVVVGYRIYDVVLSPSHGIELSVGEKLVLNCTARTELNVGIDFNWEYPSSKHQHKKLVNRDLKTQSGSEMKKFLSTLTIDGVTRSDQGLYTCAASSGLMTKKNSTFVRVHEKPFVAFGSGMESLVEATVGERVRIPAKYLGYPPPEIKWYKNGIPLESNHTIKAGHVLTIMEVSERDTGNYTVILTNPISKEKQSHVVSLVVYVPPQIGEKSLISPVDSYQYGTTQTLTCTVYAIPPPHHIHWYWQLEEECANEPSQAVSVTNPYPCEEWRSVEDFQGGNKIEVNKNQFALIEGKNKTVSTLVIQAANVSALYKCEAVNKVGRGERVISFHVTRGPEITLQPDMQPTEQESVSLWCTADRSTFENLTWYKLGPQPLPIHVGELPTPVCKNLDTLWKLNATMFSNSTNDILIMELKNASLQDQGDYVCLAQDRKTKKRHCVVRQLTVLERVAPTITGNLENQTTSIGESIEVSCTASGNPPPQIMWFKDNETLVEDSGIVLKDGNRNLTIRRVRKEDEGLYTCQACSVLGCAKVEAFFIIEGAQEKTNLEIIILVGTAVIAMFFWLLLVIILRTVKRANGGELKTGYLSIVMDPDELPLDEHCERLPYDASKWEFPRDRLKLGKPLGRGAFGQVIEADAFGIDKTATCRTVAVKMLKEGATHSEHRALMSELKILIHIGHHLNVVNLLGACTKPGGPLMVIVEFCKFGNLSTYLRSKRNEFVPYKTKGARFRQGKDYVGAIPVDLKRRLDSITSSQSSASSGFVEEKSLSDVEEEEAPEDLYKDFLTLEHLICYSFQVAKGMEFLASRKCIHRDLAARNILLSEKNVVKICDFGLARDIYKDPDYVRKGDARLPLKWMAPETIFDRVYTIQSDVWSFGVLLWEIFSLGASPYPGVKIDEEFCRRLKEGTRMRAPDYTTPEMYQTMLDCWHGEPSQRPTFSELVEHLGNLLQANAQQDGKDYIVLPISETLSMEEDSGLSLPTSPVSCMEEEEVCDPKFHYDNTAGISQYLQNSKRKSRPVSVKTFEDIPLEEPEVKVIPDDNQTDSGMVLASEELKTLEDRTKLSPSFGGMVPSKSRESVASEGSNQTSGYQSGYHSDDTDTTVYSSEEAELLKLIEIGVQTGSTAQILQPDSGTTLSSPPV

[5] = target: Prostaglandin G/H synthase 1 (Homo sapiens, UniProt P23219); type: functional
Sequence of Prostaglandin G/H synthase 1 (P23219 whole entry): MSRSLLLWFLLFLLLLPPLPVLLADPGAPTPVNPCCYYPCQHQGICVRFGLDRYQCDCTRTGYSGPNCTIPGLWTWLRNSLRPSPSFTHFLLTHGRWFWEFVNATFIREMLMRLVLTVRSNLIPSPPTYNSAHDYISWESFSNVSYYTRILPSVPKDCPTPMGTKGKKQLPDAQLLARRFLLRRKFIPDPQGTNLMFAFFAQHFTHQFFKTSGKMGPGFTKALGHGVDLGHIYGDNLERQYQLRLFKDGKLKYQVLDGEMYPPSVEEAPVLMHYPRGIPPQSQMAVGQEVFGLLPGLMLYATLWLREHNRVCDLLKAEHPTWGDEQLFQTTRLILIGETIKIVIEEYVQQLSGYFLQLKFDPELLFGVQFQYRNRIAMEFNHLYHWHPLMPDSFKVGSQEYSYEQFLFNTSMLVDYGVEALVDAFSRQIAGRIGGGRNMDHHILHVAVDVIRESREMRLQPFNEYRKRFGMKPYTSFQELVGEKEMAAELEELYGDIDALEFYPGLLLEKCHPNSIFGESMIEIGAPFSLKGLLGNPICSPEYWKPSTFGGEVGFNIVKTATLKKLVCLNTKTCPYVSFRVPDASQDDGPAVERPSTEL
Further: assay procedure not described here.

Structure (SMILES)	AC50 (B2 bradykinin receptor)	AC50 (Cannabinoid receptor 1)	AC50 (Endothelin-1 receptor)	AC50 (Histamine H2 receptor)	AC50 (Progesterone receptor)	AC50 [1]	AC50 (D(1A) dopamine receptor)	AC50 [2]	AC50 [3]	AC50 [4]	AC50 [5]
CO/N=C(\C(=O)N[C@@H]1C(=O)N2C(C(=O)[O-])=C(C[N+]3(C)CCCC3)CS[C@H]12)c1csc(N)n1	> 30 µM	> 30 µM	> 300 µM	> 30 µM	> 30 µM and 140 µM						
CC(N)Cc1ccccc1 (stereo not given) [AMPHETAMINE]	> 30 µM	> 10 µM	> 30 µM	> 10 µM	> 30 µM						
COC(=O)N[C@H](C(=O)N[C@@H](Cc1ccccc1)[C@@H](O)CN(Cc1ccc(-c2ccccn2)cc1)NC(=O)[C@@H](NC(=O)OC)C(C)(C)C)C(C)(C)C [ATAZANAVIR]	> 30 µM	> 10 µM		> 10 µM	> 30 µM						
O=C1c2c(O)c(=O)ccn2N([C@@H]2c3ccccc3SCc3c2ccc(F)c3F)[C@@H]2COCCN12 [BALOXAVIR]						> 30 µM	> 30 µM	> 30 µM	> 30 µM	> 30 µM	> 30 µM
COc1cc(Nc2c(C#N)cnc3cc(OCCCN4CCN(C)CC4)c(OC)cc23)c(Cl)cc1Cl [BOSUTINIB]	> 30 µM	> 10 µM	> 30 µM			7.58 µM	4.64 µM	14.2 µM	> 30 µM		> 30 µM
CCO/N=C(\C(=O)N[C@@H]1C(=O)N2C(C(=O)[O-])=C(Sc3nc(-c4cc[n+](C)cc4)cs3)CS[C@H]12)c1nsc(N)n1 [CEFTAROLINE]						> 30 µM	> 30 µM	> 30 µM	> 30 µM	> 30 µM	> 30 µM
Cc1cc(O)cc(C)c1Cl [CHLOROXYLENOL]						> 30 µM	> 30 µM	> 30 µM	> 30 µM	> 30 µM	> 30 µM
C[N+](C)(C)CCCCCCCCCC[N+](C)(C)C [DECAMETHONIUM]						> 30 µM	> 30 µM	> 30 µM	> 30 µM	> 30 µM	> 30 µM
O=C(O)c1cc(-c2ccc(F)cc2F)ccc1O [DIFLUNISAL]	> 10 µM	> 10 µM		> 30 µM	> 10 µM						
O=C1c2ccccc2C(=O)C1C(=O)C(c1ccccc1)c1ccccc1 [DIPHENADIONE]						> 30 µM	> 30 µM	> 30 µM	> 30 µM	> 30 µM	20.4 µM
C#C[C@]1(O)CC[C@H]2[C@@H]3CCc4cc(O)ccc4[C@H]3CC[C@@]21C [ETHINYL ESTRADIOL]	> 30 µM	> 10 µM	> 30 µM	> 10 µM		> 30 µM	> 30 µM	> 30 µM	> 30 µM		> 30 µM
CCOC(=O)c1ccc(O)cc1 [ETHYLPARABEN]						> 30 µM	> 30 µM	> 30 µM	> 30 µM	> 30 µM	> 30 µM
NC(N)=Nc1nc(CSCCC(N)=NS(N)(=O)=O)cs1 [FAMOTIDINE]	> 30 µM	> 10 µM	> 30 µM	> 10 µM							
C[C@@H]1O[C@@H]1P(=O)(O)O [FOSFOMYCIN]	> 10 µM	> 10 µM		> 10 µM	> 30 µM						
COc1ccc2c(c1)C(=O)N(CCc1ccc(S(=O)(=O)NC(=O)NC3CCCCC3)cc1)C(=O)C2(C)C [GLIQUIDONE]	> 30 µM	> 30 µM	> 30 µM	> 30 µM	> 30 µM						
NS(=O)(=O)c1cc2c(cc1Cl)NCNS2(=O)=O [HYDROCHLOROTHIAZIDE]	> 30 µM	> 10 µM	> 30 µM	> 10 µM							
NC[C@H]1O[C@H](O[C@H]2[C@H](O)[C@@H](O[C@H]3O[C@H](CO)[C@@H](O)[C@H](N)[C@H]3O)[C@H](N)C[C@@H]2N)[C@H](O)[C@@H](O)[C@@H]1O [KANAMYCIN]	> 10 µM	> 10 µM		> 30 µM	> 10 µM						
CN1C(=O)CC(C)(c2ccccc2)C1=O (stereo not given) [METHSUXIMIDE]	> 10 µM	> 10 µM		> 30 µM	> 10 µM						
CCN(CC)CCNC(=O)c1cc(Cl)c(N)cc1OC [METOCLOPRAMIDE]	> 30 µM	> 10 µM	> 30 µM	> 10 µM							
CC(C)(C(=O)c1cccnc1)c1cccnc1 [METYRAPONE]	> 10 µM	> 10 µM		> 10 µM	> 10 µM						
CC[C@H](C)C(=O)O[C@H]1C[C@H](O)C=C2C=C[C@H](C)[C@H](CC[C@@H](O)C[C@@H](O)CC(=O)O)[C@H]21 [PRAVASTATIN]		> 10 µM	> 30 µM	> 10 µM	> 30 µM						
CC(C(=O)O)c1ccc(C(=O)c2cccs2)cc1 (stereo not given) [SUPROFEN]	> 10 µM	> 10 µM		> 10 µM	> 10 µM						
Cc1ccc(C(=O)c2cc(O)c(O)c([N+](=O)[O-])c2)cc1 [TOLCAPONE]	> 10 µM	> 10 µM		> 10 µM	1.09 µM						
NC[C@H]1CC[C@H](C(=O)O)CC1 [TRANEXAMIC ACID]	> 10 µM	> 10 µM		> 30 µM	> 10 µM						
O=C(CCCCCCC(=O)Nc1ccccc1)NO [VORINOSTAT]	> 30 µM	> 10 µM	> 30 µM	> 30 µM	> 30 µM						
